{
  "source": "patent US20210330611A1",
  "about": "“THERAPY FOR NEUROLOGICAL DISEASES/DISORDERS” (priority 2020, published 2021)",
  "key": {"primary rat microglia [1]": {"system": "primary rat microglia", "conditions": "rat"}, "[2]": {"system": "fibrin- and LPS-induced microglia activation", "assay": "cells", "type": "cell-based, rat"}, "[3]": {"system": "LPS-induced microglia activation", "assay": "Image-based assay of LPS-induced microglia activation (HTS and dose response)", "type": "cell-based, rat"}, "[4]": {"system": "fibrin-induced microglia activation", "assay": "Image-based assay of fibrin-induced microglia activation (HTS and dose response)", "type": "cell-based, rat", "conditions": "for inhibition at 10 µM: Rattus norvegicus, Microglia, read-out: Fibrin % inhibition"}, "primary rat microglia [5]": {"system": "primary rat microglia", "assay": "Cell toxicity (dead cells, size <150 μm2) in LPS assay", "conditions": "primary microglia HTS, LPS stimulation; decreased size (<150 μm^2) as marker of toxicity"}, "primary rat microglia [6]": {"system": "primary rat microglia", "conditions": "rat", "remark": "listed apart in the source"}, "primary rat microglia [7]": {"system": "primary rat microglia", "assay": "Cell toxicity (dead cells, size <150 μm2) in coated fibrin (cFib) assay;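 also: share of dead cells sized under 150 µm2 at 10 µM in fibrin-stimulated microglia HTS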", "conditions": "primary microglia HTS"}, "[8]": {"conditions": "quadrant by fibrin and LPS inhibition in HTS of 1907 compounds"}, "[9]": {"conditions": "Rattus norvegicus, Microglia, 48 h; read-out: LPS % inhibition"}, "[10]": {"conditions": "classification by fibrin and LPS inhibition in HTS"}, "[11]": {"conditions": "primary microglia HTS, fibrin stimulation, cell size >800 μm2 as marker of activation"}, "[12]": {"conditions": "Rattus norvegicus, Microglia, primary microglia HTS, LPS stimulation, compounds at 10 μM; read-out: LPS % inhibition"}, "[13]": {"conditions": "primary microglia HTS, LPS stimulation, compounds at 10 μM; 10 µM"}, "[14]": {"conditions": "classification by fibrin and LPS inhibition, HTS at 10 μM"}, "[15]": {"conditions": "primary microglia HTS, fibrin stimulation, compounds at 10 μM"}, "[16]": {"conditions": "Rattus norvegicus, Microglia, 48 h, primary microglia HTS, LPS stimulation; increased cell size (>800 μm^2) as marker of activation; read-out: LPS % inhibition"}, "[17]": {"conditions": "primary microglia HTS, fibrin stimulation, increased cell size (>800 μm^2) as marker of activation"}},
  "note": "Values joined by “and” are separate entries in the source; they are usually repeats but may differ in a detail not shown here. Equal entries are not always repeated. Where two headings read alike, the source gives them in different places.",
  "data": [
    {"smiles": "CCC(C)n1ncn(-c2ccc(N3CCN(c4ccc(OCC5COC(Cn6cncn6)(c6ccc(Cl)cc6Cl)O5)cc4)CC3)cc2)c1=O", "note": "(stereo not drawn) [Itraconazole]", "values": [
      {"measurement": "Fibrin % cell toxicity", "setting": "primary rat microglia [1]", "result": 1, "unit": "%"},
      {"measurement": "Quadrant (FIG. 5b)", "setting": "[2]; [8]", "result": "Q4"}
    ]},
    {"smiles": "O=C(O)c1ccccc1O", "note": "[Salicylic Acid]", "values": [
      {"measurement": "Fibrin % cell toxicity", "setting": "primary rat microglia [1]", "result": 0, "unit": "%"},
      {"measurement": "inhibition at 10 µM", "setting": "[3]; [9]", "result": 14, "unit": "%"},
      {"measurement": "Quadrant (FIG. 5b)", "setting": "[2]; [10]", "result": "Q4"},
      {"measurement": "inhibition at 10 µM", "setting": "[4]; [11]", "result": -32, "unit": "%"}
    ]},
    {"smiles": "C#C[C@]1(O)CC[C@H]2[C@@H]3CCC4=CC(=O)CC[C@@H]4[C@H]3CC[C@@]21C", "note": "[Norethisterone]", "values": [
      {"measurement": "Fibrin % cell toxicity", "setting": "primary rat microglia [1]", "result": 1, "unit": "%"},
      {"measurement": "LPS % inhibition", "setting": "[3]", "result": 1, "unit": "%"},
      {"measurement": "Quadrant (FIG. 5b)", "setting": "[2]", "result": "Q4"},
      {"measurement": "Fibrin % inhibition", "setting": "[4]", "result": 18, "unit": "%"}
    ]},
    {"smiles": "C=C1C[C@@H]2[C@H](CC[C@]3(C)C(=O)CC[C@@H]23)[C@@]2(C)C=CC(=O)C=C12", "note": "[Exemestane]", "values": [
      {"measurement": "Fibrin % cell toxicity", "setting": "primary rat microglia [1]", "result": 1, "unit": "%"},
      {"measurement": "inhibition at 10 µM", "setting": "[3]; [12]", "result": 21, "unit": "%"},
      {"measurement": "LPS % inhibition", "setting": "[3]; [13]", "result": 34, "unit": "%"},
      {"measurement": "Quadrant (FIG. 5b)", "setting": "[2]; [14]", "result": "Q4"},
      {"measurement": "inhibition at 10 µM", "setting": "[4]; [15]", "result": 22, "unit": "%"},
      {"measurement": "Fibrin % inhibition", "setting": "[4]; primary microglia HTS, fibrin stimulation, compounds at 10 μM, 10 µM", "result": 31, "unit": "%"}
    ]},
    {"smiles": "CC[C@H](C)C(=O)O[C@H]1C[C@@H](C)C=C2C=C[C@H](C)[C@H](CC[C@@H]3C[C@@H](O)CC(=O)O3)[C@H]21", "note": "[Lovastatin]", "values": [
      {"measurement": "Fibrin % cell toxicity", "setting": "primary rat microglia [1]", "result": 3, "unit": "%"},
      {"measurement": "inhibition at 10 µM", "setting": "[3]; Rattus norvegicus, Microglia, 48 h, read-out: LPS % inhibition", "result": 87, "unit": "%"},
      {"measurement": "Quadrant (FIG. 5b)", "setting": "[2]", "result": "Q2"},
      {"measurement": "inhibition at 10 µM", "setting": "[4]", "result": 106, "unit": "%"}
    ]},
    {"smiles": "Clc1ccc(C(Cn2ccnc2)OCc2ccsc2Cl)c(Cl)c1", "note": "(stereo not drawn) [Tioconazole]", "values": [
      {"measurement": "Fibrin % cell toxicity", "setting": "primary rat microglia [1]", "result": 1, "unit": "%"},
      {"measurement": "LPS % inhibition", "setting": "[3]; 10 µM", "result": 8, "unit": "%"},
      {"measurement": "inhibition at 10 µM", "setting": "[3]; Rattus norvegicus, Microglia, read-out: LPS % inhibition", "result": 12, "unit": "%"},
      {"measurement": "Quadrant (FIG. 5b)", "setting": "[2]", "result": "Q4"}
    ]},
    {"smiles": "C[C@]12CC[C@@H]3c4ccc(O)cc4CC[C@H]3[C@@H]1CCC2=O", "note": "[Estrone]", "values": [
      {"measurement": "LPS % cell toxicity", "setting": "primary rat microglia [5]", "result": 25, "unit": "%"},
      {"measurement": "inhibition at 10 µM", "setting": "[3]; [16]", "result": 106, "unit": "%"},
      {"measurement": "inhibition at 10 µM", "setting": "[3]; [12]", "result": 16, "unit": "%"},
      {"measurement": "Quadrant (FIG. 5b)", "setting": "[2]; [14]", "result": "Q4"},
      {"measurement": "Quadrant (FIG. 5b)", "setting": "[2]; [8]", "result": "Q2"},
      {"measurement": "inhibition at 10 µM", "setting": "[4]; [15]", "result": 35, "unit": "%"},
      {"measurement": "inhibition at 10 µM", "setting": "[4]; [17]", "result": 106, "unit": "%"},
      {"measurement": "LPS % cell toxicity", "setting": "primary rat microglia [6]", "result": 0, "unit": "%"}
    ]},
    {"smiles": "Cn1c(=O)c2c(ncn2CC2OCCO2)n(C)c1=O", "note": "[Doxofylline]", "values": [
      {"measurement": "Fibrin % cell toxicity", "setting": "primary rat microglia [1]", "result": 0, "unit": "%"},
      {"measurement": "inhibition at 10 µM", "setting": "[3]; [12]", "result": 18, "unit": "%"},
      {"measurement": "Quadrant (FIG. 5b)", "setting": "[2]; [14]", "result": "Q4"},
      {"measurement": "inhibition at 10 µM", "setting": "[4]; [15]", "result": -42, "unit": "%"}
    ]},
    {"smiles": "C#C[C@]1(O)CC[C@H]2[C@@H]3CCC4=Cc5oncc5C[C@]4(C)[C@H]3CC[C@@]21C", "note": "[Danazol]", "values": [
      {"measurement": "LPS % cell toxicity", "setting": "primary rat microglia [5]", "result": 14, "unit": "%"},
      {"measurement": "inhibition at 10 µM", "setting": "[3]; [16]", "result": 99, "unit": "%"},
      {"measurement": "inhibition at 10 µM", "setting": "[3]; [12]", "result": 5, "unit": "%"},
      {"measurement": "Quadrant (FIG. 5b)", "setting": "[2]; [14]", "result": "Q4"},
      {"measurement": "Quadrant (FIG. 5b)", "setting": "[2]; [8]", "result": "Q2"},
      {"measurement": "Fibrin % cell toxicity", "setting": "primary rat microglia [7]; fibrin assay, dead cells (size <150 μm2), compounds at 10 μM", "result": 1, "unit": "%"},
      {"measurement": "Fibrin % cell toxicity", "setting": "primary rat microglia [7]; fibrin stimulation, decreased size (<150 μm^2) as marker of toxicity", "result": 28, "unit": "%"},
      {"measurement": "inhibition at 10 µM", "setting": "[4]; [15]", "result": -14, "unit": "%"},
      {"measurement": "inhibition at 10 µM", "setting": "[4]; [17]", "result": 105, "unit": "%"},
      {"measurement": "LPS % cell toxicity", "setting": "primary rat microglia [6]", "result": 0, "unit": "%"}
    ]},
    {"smiles": "CC(=O)c1ccc2c(c1)N(CCCN1CCC(CCO)CC1)c1ccccc1S2", "note": "[Piperacetazine]", "values": [
      {"measurement": "Fibrin % cell toxicity", "setting": "primary rat microglia [1]", "result": 0, "unit": "%"},
      {"measurement": "inhibition at 10 µM", "setting": "[3]; [9]", "result": 48, "unit": "%"},
      {"measurement": "Quadrant (FIG. 5b)", "setting": "[2]; [10]", "result": "Q4"},
      {"measurement": "inhibition at 10 µM", "setting": "[4]; [11]", "result": -32, "unit": "%"}
    ]},
    {"smiles": "CC(=O)O[C@]1(C(C)=O)CC[C@H]2[C@@H]3C=C(Cl)C4=CC(=O)[C@@H]5C[C@@H]5[C@]4(C)[C@H]3CC[C@@]21C", "note": "[Cyproterone Acetate]", "values": [
      {"measurement": "Fibrin % cell toxicity", "setting": "primary rat microglia [1]", "result": 1, "unit": "%"},
      {"measurement": "LPS % inhibition", "setting": "[3]; [13]", "result": "12% and 3%"},
      {"measurement": "Quadrant (FIG. 5b)", "setting": "[2]; [14]", "result": "Q4"}
    ]},
    {"smiles": "Nc1nc(Cl)nc2c1ncn2[C@@H]1O[C@H](CO)[C@@H](O)[C@@H]1F", "note": "[Clofarabine]", "values": [
      {"measurement": "Fibrin % cell toxicity", "setting": "primary rat microglia [1]", "result": 1, "unit": "%"},
      {"measurement": "LPS % inhibition", "setting": "[3]; primary HTS, 10 μM, LPS-stimulated primary microglia", "result": "−2% and 8%"},
      {"measurement": "Quadrant (FIG. 5b)", "setting": "[2]; primary HTS, 10 μM", "result": "Q4"}
    ]},
    {"smiles": "O=c1[nH]c(=O)n([C@H]2C[C@H](O)[C@@H](CO)O2)cc1I", "note": "[Idoxuridine]", "values": [
      {"measurement": "Fibrin % cell toxicity", "setting": "primary rat microglia [1]", "result": 1, "unit": "%"},
      {"measurement": "Quadrant (FIG. 5b)", "setting": "[2]; [8]", "result": "Q4"}
    ]},
    {"smiles": "CCCCCCCCCCC[C@@H](C[C@@H]1OC(=O)[C@H]1CCCCCC)OC(=O)[C@H](CC(C)C)NC=O", "note": "[Orlistat]", "values": [
      {"measurement": "Fibrin % cell toxicity", "setting": "primary rat microglia [1]", "result": 1, "unit": "%"},
      {"measurement": "Quadrant (FIG. 5b)", "setting": "[2]; [8]", "result": "Q4"},
      {"measurement": "inhibition at 10 µM", "setting": "[4]; [17]", "result": 17, "unit": "%"}
    ]},
    {"smiles": "O=C(O)CN(CCN(CC(=O)O)CC(=O)O)CC(=O)O", "note": "[Edetic Acid]", "values": [
      {"measurement": "Fibrin % cell toxicity", "setting": "primary rat microglia [1]", "result": 0, "unit": "%"},
      {"measurement": "Quadrant (FIG. 5b)", "setting": "[2]", "result": "Q4"}
    ]}
  ]
}
